Broadly, the IC50 is the concentration needed to halve the response being measured. Lower therefore signals inhibition by little substance.

Holding throughout (assay): Antibacterial activity, concentration required for 50% inhibition
Holding throughout (assay type): cell-based

Experiment [1] has as its system Bacteroides fragilis Leo JA 2. Conditions: LEOJA2. An excerpt: (§1) Now, however, it has been found, that the compounds of the present invention both in vitro and in vivo show interesting antimicrobial and pharmacokinetic properties. Thereby the compounds of the invention can be used in the treatment of bacterial infections in humans and animals.
Experiment [2] has as its system Staph.aureus Leo CC 178 A. Conditions: Staphylococcus aureus, LEOCC178A.
Text: as §1

The subject of experiment [3] is Staph.aureus Leo CC 178 B. Conditions: Staphylococcus aureus, LEOCC178B.
Text: as §1

Another experiment deals with Strep.pyogenes Leo EC. Conditions: Streptococcus pyogenes.
Text: as §1

Another experiment concerns Strep.sp. Leo EG 2.
Text: as §1

Converted amounts (≈) assume the structure as drawn.

Regarding `CC(=O)S[C@H]1C[C@@]2(C)[C@@H](C[C@@H](O)[C@H]3[C@@]4(C)CC[C@@H](O)[C@@H](C)[C@@H]4CC[C@@]32C)/C1=C(\CCC=C(C)C)C(=O)O` [Example 1, 16-Deacetoxy-16β-(acetylthio)fusidic acid], the IC50 in experiment [1] worked out at 0.79 µg/mL (≈ 1.48 µM); in experiment [2], 6.3 µg/mL (≈ 11.8 µM); in experiment [3], 0.01 µg/mL (≈ 0.0188 µM); in the experiment with Strep.pyogenes Leo EC, 0.2 µg/mL (≈ 0.375 µM); in the experiment with Strep.sp. Leo EG 2, 0.2 µg/mL (≈ 0.375 µM).

As for `CC(=O)S[C@H]1C[C@@]2(C)[C@@H](C[C@@H](O)[C@H]3[C@@]4(C)CC[C@@H](O)[C@@H](C)[C@@H]4CC[C@@]32C)/C1=C(\CCCC(C)C)C(=O)O` [Example 3, 16-Deacetoxy-16β-acetylthio-24,25-dihydrofusidic acid], the IC50 in experiment [1] came out at 0.5 µg/mL (≈ 0.935 µM); in experiment [2], 3.2 µg/mL (≈ 5.98 µM); in experiment [3], 0.008 µg/mL (≈ 0.015 µM); in the experiment on Strep.pyogenes Leo EC, 0.16 µg/mL (≈ 0.299 µM); with Strep.sp. Leo EG 2 it was 0.25 µg/mL (≈ 0.467 µM).

As for `CC(C)CCC/C(C(=O)O)=C1/[C@@H](SC(=O)c2ccccc2)C[C@@]2(C)[C@H]1C[C@@H](O)[C@H]1[C@@]3(C)CC[C@@H](O)[C@@H](C)[C@@H]3CC[C@@]12C` [Example 4, 16-Deacetoxy-16β-benzoylthio-24,25-dihydrofusidic acid], the IC50 stood at 1.6 µg/mL (≈ 2.68 µM) in experiment [1]; 1.6 µg/mL (≈ 2.68 µM) in experiment [2]; 0.5 µg/mL (≈ 0.838 µM) in experiment [3]; 0.2 µg/mL (≈ 0.335 µM) in the experiment with Strep.pyogenes Leo EC; 0.63 µg/mL (≈ 1.06 µM) in the experiment on Strep.sp. Leo EG 2.

For `CC(=O)S[C@H]1C[C@@]2(C)[C@@H](CC(=O)[C@H]3[C@@]4(C)CC[C@@H](O)[C@@H](C)[C@@H]4CC[C@@]32C)/C1=C(\CCC=C(C)C)C(=O)O` [Example 7, 11-keto-16-deacetoxy-16β-(acetylthio)fusidic acid], the IC50 in experiment [1] turned out to be 2 µg/mL (≈ 3.77 µM); in experiment [2] it was 20 µg/mL (≈ 37.7 µM); in experiment [3] it was 0.02 µg/mL (≈ 0.0377 µM); with Strep.pyogenes Leo EC it was 1 µg/mL (≈ 1.88 µM); with Strep.sp. Leo EG 2 it was 2 µg/mL (≈ 3.77 µM).

As for `CC(=O)S[C@H]1C[C@@]2(C)[C@@H](CC(=O)[C@H]3[C@@]4(C)CC[C@@H](O)[C@@H](C)[C@@H]4CC[C@@]32C)/C1=C(\CCCC(C)C)C(=O)O` [Example 8], the IC50 is 2 µg/mL (≈ 3.75 µM) in experiment [1]; 16 µg/mL (≈ 30 µM) in experiment [2]; 0.02 µg/mL (≈ 0.0375 µM) in experiment [3]; 1 µg/mL (≈ 1.88 µM) with Strep.pyogenes Leo EC; 2 µg/mL (≈ 3.75 µM) with Strep.sp. Leo EG 2.

In the case of `CC(=O)S[C@H]1C[C@@]2(C)[C@@H](C[C@@H](O)[C@H]3[C@@]4(C)CC[C@H](Br)[C@@H](C)[C@@H]4CC[C@@]32C)/C1=C(\CCC=C(C)C)C(=O)O` [Example 21, 3-Deoxy-3β-bromo-16-deacetoxy-16β-(acetylthio)fusidic acid], the IC50 was found to be 3.2 µg/mL (≈ 5.37 µM) in experiment [1]; 4 µg/mL (≈ 6.71 µM) in experiment [2]; 0.13 µg/mL (≈ 0.218 µM) in experiment [3]; 0.32 µg/mL (≈ 0.537 µM) in the experiment on Strep.pyogenes Leo EC; 1 µg/mL (≈ 1.68 µM) in the experiment with Strep.sp. Leo EG 2.

For `CC(=O)S[C@H]1C[C@@]2(C)[C@@H](C[C@@H](O)[C@H]3[C@@]4(C)CC[C@H](Br)[C@@H](C)[C@@H]4CC[C@@]32C)/C1=C(\CCCC(C)C)C(=O)O` [Example 22, 3-deoxy-3β-bromo-16-deacetoxy-16β-acetylthio-24,25-dihydrofusidic acid], the IC50 in experiment [1] was found to be 2 µg/mL (≈ 3.35 µM); in experiment [2], 1.6 µg/mL (≈ 2.68 µM); in experiment [3], 0.079 µg/mL (≈ 0.132 µM); with Strep.pyogenes Leo EC it was 0.79 µg/mL (≈ 1.32 µM); in the experiment with Strep.sp. Leo EG 2, 1.6 µg/mL (≈ 2.68 µM).

In the case of `CC(=O)S[C@H]1C[C@@]2(C)[C@@H](C[C@@H](O)[C@H]3[C@@]4(C)CC[C@H](N=[N+]=[N-])[C@@H](C)[C@@H]4CC[C@@]32C)/C1=C(\CCCC(C)C)C(=O)O` [Example 28], the IC50 in experiment [1] amounted to 1.6 µg/mL (≈ 2.86 µM); in experiment [2], 2 µg/mL (≈ 3.57 µM); in experiment [3] it was 1.6 µg/mL (≈ 2.86 µM); in the experiment with Strep.pyogenes Leo EC, 0.63 µg/mL (≈ 1.13 µM); in the experiment on Strep.sp. Leo EG 2, 0.63 µg/mL (≈ 1.13 µM).

On to `CC(=O)S[C@H]1C[C@@]2(C)[C@@H](C[C@@H](O)[C@H]3[C@@]4(C)CC[C@H](Cl)[C@@H](C)[C@@H]4CC[C@@]32C)/C1=C(\CCC=C(C)C)C(=O)O` [Example 29], for which the IC50 in experiment [1] was found to be 1.3 µg/mL (≈ 2.36 µM); in experiment [2] it was 2 µg/mL (≈ 3.63 µM); in experiment [3] it was 0.5 µg/mL (≈ 0.907 µM); in the experiment with Strep.pyogenes Leo EC, 0.63 µg/mL (≈ 1.14 µM); in the experiment on Strep.sp. Leo EG 2 it was 1.6 µg/mL (≈ 2.9 µM).

Consider `CC(=O)S[C@H]1C[C@@]2(C)[C@@H](C[C@@H](O)[C@H]3[C@@]4(C)CC[C@@H](N=[N+]=[N-])[C@@H](C)[C@@H]4CC[C@@]32C)/C1=C(\CCCC(C)C)C(=O)O` [Example 36, 3-Deoxy-3α-azido-16-deacetoxy-16β-acetylthio-24,25-dihydrofusidic acid], for which the IC50 in experiment [1] is 5 µg/mL (≈ 8.93 µM); in experiment [2] it was 5 µg/mL (≈ 8.93 µM); in experiment [3], 0.063 µg/mL (≈ 0.113 µM); in the experiment with Strep.pyogenes Leo EC it was 0.4 µg/mL (≈ 0.715 µM); in the experiment with Strep.sp. Leo EG 2 it was 2 µg/mL (≈ 3.57 µM).

In the case of `CC(=O)O[C@H]1C[C@@]2(C)[C@@H](C[C@@H](O)[C@H]3[C@@]4(C)CC[C@@H](O)[C@@H](C)[C@@H]4CC[C@@]32C)/C1=C(\CCC=C(C)C)C(=O)O` [Fusidic acid], the IC50 is 1.6 µg/mL (≈ 3.1 µM) in experiment [1]; 16 µg/mL (≈ 31 µM) in experiment [2]; 0.025 µg/mL (≈ 0.0484 µM) in experiment [3]; 0.63 µg/mL (≈ 1.22 µM) in the experiment with Strep.pyogenes Leo EC; 1.6 µg/mL (≈ 3.1 µM) in the experiment with Strep.sp. Leo EG 2.
